Measured values as given in patent USRE46943E1, “Radioprotector compounds and methods” (PETER MACCALLUM CANCER INSTITUTE, priority 2010, dated 2018).
Where two headings read alike, the source gives them in different places.

Assays:
[1] = test system: transformed human keratinocyte cell line (FEP 1811); test: Clonogenic survival cell culture assay for cytotoxicity; format: cell-based; conditions: un-irradiated keratinocytes, one hour drug exposure, colonies counted after eight days, read-out: C50 (concentration of radioprotector that results in 50% clonogenic survival)
Procedure: • i. […] In appropriate cases, tautomers are drawn to illustrate potential hydrogen-bond donating configurations into the minor groove of DNA. • ii. 2-Amino-4-(5′-(4″-methylpiperazin-1″-yl)benzimidazol-2′-yl)aniline was prepared by hydrogenation of 4-(5′-(4″-methylpiperazin-1″-yl)benzimidazol-2′-yl)-2-nitroaniline, using a modification of the method of Kelly et al, Aust. […] 2-Amino-4-(5′-(piperidin-1″-yl)benzimidazol-2′-yl)aniline was prepared by hydrogenation of 2-nitro-4-(5′-(piperidin-1″-yl)benzimidazol-2′-yl)aniline, using a modification of the method of Kelly et al, Aust. […] Ethyl 4-amino-3-nitrobenzenecarboximidate hydrochloride was prepared by reaction of 4-amino-3-nitrobenzonitrile with dry HCl gas in ethanol, using the method of Kelly et al, Aust. […] 5-(4′-Methylpiperazin-1′-yl)-2-nitroaniline was prepared using a modification of the method of Kelly et al, Aust. […] The following chemicals were obtained from the chemical suppliers indicated: 2-furaldehyde (Aldrich), 2-pyridinecarboxaldehyde (Aldrich), 3-fluoropyridine-2-carbaldehyde (Maybridge), 3-trifluoromethylpyridine-2-carboxaldehyde (Apollo Scientific), 6-methyl-2-pyridinecarboxaldehyde (Matrix Scientific), 5-methylpyridine-2-carbonitrile (Apollo Scientific), 4-methyl-2-pyridinecarbonitrile (Aldrich), 4-chloro-2-pyridinecarbonitrile (Aldrich), 4-methoxypicolinonitrile (Combi-Blocks), pyrazinecarbonitrile (Aldrich), 2-quinolinecarbonitrile (Aldrich), 3-isoquinolinecarbonitrile (Aldrich), 1-isoquinolinecarboxylic acid (Aldrich), indazole-3-carboxylic acid (Aldrich), 2-hydroxynicotinic acid (Aldrich), 4-hydroxypiperidine (Aldrich), 1-methylhomopiperazine (Aldrich), 3-hydroxypiperidine (Aldrich), 4-(N-BOC-amino)piperidine (Aldrich), 4-methoxypiperidine (Acros), 4-methyl-3-nitrobenzonitrile (Aldrich), 5-chloro-2-nitroaniline (Aldrich), 2-cyanopyridine (Aldrich), methyl 4-amino-2-methoxybenzoic acid (Aldrich), 4-(trifluoromethyl)-2-pyridinecarbonitrile (Matrix Scientific), cis-2,6-dimethylmorphoiline (Acros), 5-(trifluoromethyl)-2-pyridinecarbonitrile (Advanced Chemical Intermediates) and 5-fluoro-2-pyridinecarbonitrile (Advanced Chemical Intermediates). • ix. […] Melting points were determined using an Electrothermal melting point apparatus, and are uncorrected. […] The abbreviations s for singlet, d for doublet, t for triplet, q for quartet, br for broad and m for muitiplet were used in the assignments of multiplicity. A value approximating the centre of a multiplet is quoted. […] The addition of a few drops of acetic acid to methanol-d4 solutions was used to enhance solubility for the acquisition of ^13C nmr spectra. Mass spectra were recorded on a Micromass Quattro II mass spectrometer and accurate mass analyses were carried out by the School of Chemistry at the University of Melbourne on a Finnigan LTQ-FT model high resolution mass spectrometer. Thin layer chromatography (TLC) was carried out using Merck silica gel 60 F254 aluminium sheets or Merck neutral aluminium oxide 150 F254 sheets. Flash column chromatography was carried out using Ajax silica gel 230-400 mesh. • xi. […] The details are described in detail in Martin et al (4) (the disclosure of which is included herein in its entirety by way of reference), but briefly, mid-log phase monolayer cultures are incubated with various concentrations of the test drugs for one hour, after which the monolayers are washed and dispersed into single cell suspensions using pronase, and finally appropriate numbers of cells are dispensed into Petri dishes. Colonies are counted after eight days incubation. […] The irradiation (with a dose rate of 0.6 Gy per minute) is started 30 minutes after addition of the test drug. After completion of irradiation, incubation of cultures is continued until the total time of exposure to the drug reaches 60 minutes. Cultures are then washed and plated for clonogenic survival as described for the cytotoxicity experiments.

[2] = test system: transformed human keratinocyte cell line (FEP 1811); test: Clonogenic survival cell culture assay for radioprotective activity (12 Gy 137Cs gamma irradiation); format: cell-based
Source text: PF is defined as a ratio of survival at maximum protection Sm and survival after irradiation only So: PF=Sm/So. DMF is defined as a ratio of doses that result in survival level of Sm in the presence Dp and the absence Dc of radioprotector: DMF=Dp/Dc. DMF10 is define in a similar way except that instead of Sm a survival at 10 microM of radioprotector is used.
PF (Protection Factor) is defined as a ratio of survival at maximum protection Sm and survival after irradiation only So:PF=Sm/So. DMF (Dose Modification Factor) is defined as a ratio of doses that result in survival level of Sm in the presence (Dp) and the absence (Dc) of radioprotector: DMF=Dp/Dc. DMF10 is defined in a similar way except that instead of Sm a survival at 10 microM of radioprotector is used.
• i. […] In appropriate cases, tautomers are drawn to illustrate potential hydrogen-bond donating configurations into the minor groove of DNA. • ii. 2-Amino-4-(5′-(4″-methylpiperazin-1″-yl)benzimidazol-2′-yl)aniline was prepared by hydrogenation of 4-(5′-(4″-methylpiperazin-1″-yl)benzimidazol-2′-yl)-2-nitroaniline, using a modification of the method of Kelly et al, Aust. […] 2-Amino-4-(5′-(piperidin-1″-yl)benzimidazol-2′-yl)aniline was prepared by hydrogenation of 2-nitro-4-(5′-(piperidin-1″-yl)benzimidazol-2′-yl)aniline, using a modification of the method of Kelly et al, Aust. […] Ethyl 4-amino-3-nitrobenzenecarboximidate hydrochloride was prepared by reaction of 4-amino-3-nitrobenzonitrile with dry HCl gas in ethanol, using the method of Kelly et al, Aust. […] 5-(4′-Methylpiperazin-1′-yl)-2-nitroaniline was prepared using a modification of the method of Kelly et al, Aust. […] The following chemicals were obtained from the chemical suppliers indicated: 2-furaldehyde (Aldrich), 2-pyridinecarboxaldehyde (Aldrich), 3-fluoropyridine-2-carbaldehyde (Maybridge), 3-trifluoromethylpyridine-2-carboxaldehyde (Apollo Scientific), 6-methyl-2-pyridinecarboxaldehyde (Matrix Scientific), 5-methylpyridine-2-carbonitrile (Apollo Scientific), 4-methyl-2-pyridinecarbonitrile (Aldrich), 4-chloro-2-pyridinecarbonitrile (Aldrich), 4-methoxypicolinonitrile (Combi-Blocks), pyrazinecarbonitrile (Aldrich), 2-quinolinecarbonitrile (Aldrich), 3-isoquinolinecarbonitrile (Aldrich), 1-isoquinolinecarboxylic acid (Aldrich), indazole-3-carboxylic acid (Aldrich), 2-hydroxynicotinic acid (Aldrich), 4-hydroxypiperidine (Aldrich), 1-methylhomopiperazine (Aldrich), 3-hydroxypiperidine (Aldrich), 4-(N-BOC-amino)piperidine (Aldrich), 4-methoxypiperidine (Acros), 4-methyl-3-nitrobenzonitrile (Aldrich), 5-chloro-2-nitroaniline (Aldrich), 2-cyanopyridine (Aldrich), methyl 4-amino-2-methoxybenzoic acid (Aldrich), 4-(trifluoromethyl)-2-pyridinecarbonitrile (Matrix Scientific), cis-2,6-dimethylmorphoiline (Acros), 5-(trifluoromethyl)-2-pyridinecarbonitrile (Advanced Chemical Intermediates) and 5-fluoro-2-pyridinecarbonitrile (Advanced Chemical Intermediates). • ix. […] Melting points were determined using an Electrothermal melting point apparatus, and are uncorrected. […] The abbreviations s for singlet, d for doublet, t for triplet, q for quartet, br for broad and m for muitiplet were used in the assignments of multiplicity. A value approximating the centre of a multiplet is quoted. […] The addition of a few drops of acetic acid to methanol-d4 solutions was used to enhance solubility for the acquisition of ^13C nmr spectra. Mass spectra were recorded on a Micromass Quattro II mass spectrometer and accurate mass analyses were carried out by the School of Chemistry at the University of Melbourne on a Finnigan LTQ-FT model high resolution mass spectrometer. Thin layer chromatography (TLC) was carried out using Merck silica gel 60 F254 aluminium sheets or Merck neutral aluminium oxide 150 F254 sheets. Flash column chromatography was carried out using Ajax silica gel 230-400 mesh. • xi.

[3] = 12 Gy, 10 microM radioprotector
[4] = 12 Gy, DMF=Dp/Dc at survival level Sm
[5] = 12 Gy, survival at maximum protection vs irradiation only
[6] = Homo sapiens, Keratinocyte, light or radiation study

| Compound | IC50 [1] | DMF10 (dose modification factor at a concentration of 10 microM of radioprotector) [2] | DMFm (dose modification factor at maximum protection) [2] | PF (protection factor = Sm/So) [2] | DMF10 (dose modification factor at a concentration of 10 microM of radioprotector) [2, 3] | DMFm (dose modification factor at maximum protection) [2, 4] | PF (protection factor = Sm/So) [2, 5] | IC50 [1, 6] |
| --- | --- | --- | --- | --- | --- | --- | --- | --- |
| 2-(5′-(5″-(2′″-(dimethylamino)ethoxy)benzimidazol-2″-yl)benzimidazol-2′-yl)pyridine [Example 44] | 146 µM | 1.50 | 1.88 | 17.6 | – | – | – | – |
| 2-(5′-(5″-(4′″-methylpiperazin-1′″-yl)-1H-indol-2″-yl)benzimidazol-2′-yl)pyridine [Example 53] | 34.1 µM | – | – | – | 1.21 | 1.30 | 4.9 | – |
| Cc1cccc(-c2nc3ccc(-c4nc5ccc(N6CCN(C)CC6)cc5[nH]4)cc3[nH]2)n1 [Example 5, 6-Methyl-2-(5′-(5″-(4′″-methylpiperazin-1′″-yl)benzimidazol-2″-yl)benzimidazol-2′-yl)pyridine] | – | – | – | – | 1.12 | 1.22 | 2.5 | 73.3 µM |
| CN1CCN(c2ccc3[nH]c(-c4ccc5[nH]c(-c6ccc7ccccc7n6)nc5c4)nc3c2)CC1 [Example 13, 2-(5′-(5″-(4′″-Methylpiperazin-1′″-yl)benzimidazol-2″-yl)benzimidazol-2′-yl)quinoline] | 14 µM | – | – | – | 1.65 | 1.66 | 11.0 | – |
| CN1CCN(c2ccc3[nH]c(-c4ccc5[nH]c(-c6nn(C)c7ccccc67)nc5c4)nc3c2)CC1 [Example 17, 1-methyl-3-(5′-(5″-(4′″-methylpiperazin-1′″-yl)benzimidazol-2″-yl)benzimidazol-2′-yl)indazole] | 76.5 µM | – | – | – | 1.27 | 1.68 | 10.9 | – |
| CCCCN1CCN(c2ccc3nc(-c4ccc5nc(-c6ccccn6)[nH]c5c4)[nH]c3c2)CC1 [Example 34, 2-(5′-(5″-(4′″-Butylpiperazin-1′″-yl)benzimidazol-2″-yl)benzimidazol-2′-yl)pyridine] | – | – | – | – | 2.05 | 2.27 | 27.6 | 47 µM |
| COCCNc1ccc2[nH]c(-c3ccc4nc(-c5ccccn5)[nH]c4c3)nc2c1 [Example 35, 2-(5′-(5″-(2′″-methoxyethylamino)benzimidazol-2″-yl)benzimidazol-2′-yl)pyridine] | – | – | – | – | 1.66 | 2.19 | 21.9 | 126 µM |
| c1ccc(-c2nc3ccc(-c4nc5ccc(N6CCSCC6)cc5[nH]4)cc3[nH]2)nc1 [Example 36, 2-(5′-(5″-thiomorpholinobenzimidazol-2″-yl)benzimidazol-2′-yl)pyridine] | – | – | – | – | 1.49 | 1.53 | 16.4 | 31.3 µM |
| CN(C)C(=O)N1CCN(c2ccc3[nH]c(-c4ccc5[nH]c(-c6ccccn6)nc5c4)nc3c2)CC1 [Example 37, 2-(5′-(5″-(4′″-(dimethylcarbamoyl)piperazin-1 ′″-yl)benzimidazol-2″-yl)benzimidazol-2′-yl)pyridine] | 120 µM | – | – | – | 1.49 | 1.82 | 34.6 | – |
| COCCN1CCN(c2ccc3nc(-c4ccc5nc(-c6ccccn6)[nH]c5c4)[nH]c3c2)CC1 [Example 40, 2-(5′-(5″-(4′″-(2″″-methoxyethyl)piperazin-1′″-yl)benzimidazol-2″-yl)benzimidazol-2′-yl)pyridine] | – | – | – | – | 1.77 | 198 | 20.2 | 80.7 µM |
| CN(C)CCNc1ccc2[nH]c(-c3ccc4[nH]c(-c5ccccn5)nc4c3)nc2c1 [Example 43, 2-(5′-(5″-(2′″-(dimethylamino)ethylamino)benzimidazol-2″-yl)benzimidazol-2′-yl)pyridine] | 118 µM | – | – | – | 1.28 | 1.61 | 11.2 | – |
| CN(C)Nc1ccc2[nH]c(-c3ccc4[nH]c(-c5ccccn5)nc4c3)nc2c1 [Example 46, 2-(5′-(5″-(2′″,2′″-dimethylhydrazinyl)benzimidazol-2″-yl)benzimidazol-2′-yl)pyridine] | – | – | – | – | 1.29 | 1.71 | 27.9 | 74.6 µM |
